Experimental data reported in article PMC5026608 (ACS chemical biology, 2016).

Molecular target: hMAT2A (Homo sapiens, UniProt P31153)
Experiment: RP-HPLC of AdoMet product formation
Format: biochemical
Details: read-out: Km μmol L^-1; saturating ATP 2 mM; 25 mM Tris pH 8.0, 10 mM MgCl2, 50 mM KCl; 37 °C; text prints error ± 27

Chain of hMAT2A (P31153 whole entry): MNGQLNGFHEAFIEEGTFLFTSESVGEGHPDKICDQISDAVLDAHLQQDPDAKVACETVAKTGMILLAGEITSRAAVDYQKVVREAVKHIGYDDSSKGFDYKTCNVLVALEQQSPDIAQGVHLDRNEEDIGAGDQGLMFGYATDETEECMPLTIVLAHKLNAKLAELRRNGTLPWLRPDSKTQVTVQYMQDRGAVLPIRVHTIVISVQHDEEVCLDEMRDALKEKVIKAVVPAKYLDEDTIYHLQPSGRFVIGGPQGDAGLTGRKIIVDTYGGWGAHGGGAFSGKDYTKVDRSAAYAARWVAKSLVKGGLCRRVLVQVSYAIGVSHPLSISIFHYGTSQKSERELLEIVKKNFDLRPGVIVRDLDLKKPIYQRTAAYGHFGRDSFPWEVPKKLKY

CSCC[C@H](N)C(=O)O [LMet] gave a Km of 397 ± 29 µM.
